Measurements: PubChem BioAssay (NCI)
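Cultured in 96-well plates, cells were exposed to test compound for 48 hours across five concentrations. GI50: concentration for 50% inhibition of growth. At the TGI there is no net growth.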

Key:
Test in all cases: NCI tumour cell line growth inhibition, 48 h
SNB-75 CNS = tested on: SNB-75 CNS
HS 578T breast = tested on: HS 578T breast
MDA-MB-231 breast = tested on: MDA-MB-231 breast
NCI/ADR-RES ovarian = tested on: NCI/ADR-RES ovarian
OVCAR-5 ovarian = tested on: OVCAR-5 ovarian
MDA-MB-435 = tested on: MDA-MB-435
IGROV1 ovarian = tested on: IGROV1 ovarian
OVCAR-8 ovarian = tested on: OVCAR-8 ovarian
T-47D breast = tested on: T-47D breast
NCI-H522 lung = tested on: NCI-H522 lung
NCI-H226 lung = tested on: NCI-H226 lung
SW-620 colon = tested on: SW-620 colon
A549 NSCLC = tested on: A549 NSCLC
HCC-2998 colon = tested on: HCC-2998 colon
SK-MEL-2 melanoma = tested on: SK-MEL-2 melanoma
UACC-257 melanoma = tested on: UACC-257 melanoma
K-562 leukemia = tested on: K-562 leukemia
HOP-62 NSCLC = tested on: HOP-62 NSCLC
ACHN renal = tested on: ACHN renal
M14 melanoma = tested on: M14 melanoma
CAKI-1 renal = tested on: CAKI-1 renal
PC-3 prostate = tested on: PC-3 prostate
NCI-H23 lung = tested on: NCI-H23 lung
TK-10 renal = tested on: TK-10 renal
HCT-116 colon = tested on: HCT-116 colon
SK-MEL-5 melanoma = tested on: SK-MEL-5 melanoma
RPMI-8226 leukemia = tested on: RPMI-8226 leukemia
SF-268 CNS = tested on: SF-268 CNS
SNB-19 CNS = tested on: SNB-19 CNS
SN12C renal = tested on: SN12C renal
KM12 colon = tested on: KM12 colon
BT-549 breast = tested on: BT-549 breast
SF-539 CNS = tested on: SF-539 CNS
SF-295 CNS = tested on: SF-295 CNS
HT29 colon = tested on: HT29 colon
SK-OV-3 ovarian = tested on: SK-OV-3 ovarian
SR leukemia = tested on: SR leukemia
COLO 205 colon = tested on: COLO 205 colon
UACC-62 melanoma = tested on: UACC-62 melanoma
CCRF-CEM leukemia = tested on: CCRF-CEM leukemia
786-0 renal = tested on: 786-0 renal
DU-145 prostate = tested on: DU-145 prostate
U251 CNS = tested on: U251 CNS
RXF 393 renal = tested on: RXF 393 renal
MOLT-4 leukemia = tested on: MOLT-4 leukemia
A498 renal = tested on: A498 renal
NCI-H460 lung = tested on: NCI-H460 lung
UO-31 renal = tested on: UO-31 renal
MCF7 breast = tested on: MCF7 breast
EKVX NSCLC = tested on: EKVX NSCLC
HL-60(TB) leukemia = tested on: HL-60(TB) leukemia
HCT-15 colon = tested on: HCT-15 colon

**Q.** What does the source list for `N#Cc1c(NC(=O)c2ccccc2C(F)(F)F)sc2c1CCC(=O)C2`?
**A.** GI50 (SNB-75 CNS): 1.63 µM; TGI (SNB-75 CNS): 6.1 µM; GI50 (HS 578T breast): 1.95 µM; TGI (HS 578T breast): 8.36 µM; GI50 (MDA-MB-231 breast): 2.08 µM; TGI (MDA-MB-231 breast): 5.43 µM; GI50 (NCI/ADR-RES ovarian): 1.31 µM; TGI (NCI/ADR-RES ovarian): 5.18 µM; GI50 (OVCAR-5 ovarian): 1.48 µM; TGI (OVCAR-5 ovarian): 3.81 µM; GI50 (MDA-MB-435): 1.97 µM; TGI (MDA-MB-435): 5.86 µM; GI50 (IGROV1 ovarian): 2.37 µM; TGI (IGROV1 ovarian): 13.1 µM; GI50 (OVCAR-8 ovarian): 1.68 µM; TGI (OVCAR-8 ovarian): > 100 µM; GI50 (T-47D breast): 0.374 µM; TGI (T-47D breast): 3.24 µM; GI50 (NCI-H522 lung): 0.36 µM; TGI (NCI-H522 lung): 2.58 µM; GI50 (NCI-H226 lung): 2.09 µM; TGI (NCI-H226 lung): 5.94 µM; GI50 (SW-620 colon): 0.427 µM; TGI (SW-620 colon): 2.52 µM; GI50 (A549 NSCLC): 3.67 µM; TGI (A549 NSCLC): 29.2 µM; GI50 (HCC-2998 colon): 2.91 µM; TGI (HCC-2998 colon): 11.5 µM; GI50 (SK-MEL-2 melanoma): 2.65 µM; TGI (SK-MEL-2 melanoma): 7.02 µM; GI50 (UACC-257 melanoma): 2.21 µM; TGI (UACC-257 melanoma): 6.48 µM; GI50 (K-562 leukemia): 0.378 µM; TGI (K-562 leukemia): 11.3 µM; GI50 (HOP-62 NSCLC): 3.12 µM; TGI (HOP-62 NSCLC): > 100 µM; GI50 (ACHN renal): 0.433 µM; TGI (ACHN renal): 1.48 µM; GI50 (M14 melanoma): 2.09 µM; TGI (M14 melanoma): 9.33 µM; GI50 (CAKI-1 renal): 0.785 µM; TGI (CAKI-1 renal): 2.56 µM; GI50 (PC-3 prostate): 0.384 µM; TGI (PC-3 prostate): 15.6 µM; GI50 (NCI-H23 lung): 1.04 µM; TGI (NCI-H23 lung): 9.28 µM; GI50 (TK-10 renal): 1.64 µM; TGI (TK-10 renal): 9.83 µM; GI50 (HCT-116 colon): 0.363 µM; TGI (HCT-116 colon): 4.89 µM; GI50 (SK-MEL-5 melanoma): 1.65 µM; TGI (SK-MEL-5 melanoma): 3.47 µM; GI50 (RPMI-8226 leukemia): 0.272 µM; TGI (RPMI-8226 leukemia): 0.954 µM; GI50 (SF-268 CNS): 3.31 µM; TGI (SF-268 CNS): 34 µM; GI50 (SNB-19 CNS): 3.37 µM; TGI (SNB-19 CNS): > 100 µM; GI50 (SN12C renal): 2.5 µM; TGI (SN12C renal): 15.9 µM; GI50 (KM12 colon): 3.44 µM; TGI (KM12 colon): 13.9 µM; GI50 (BT-549 breast): 1.09 µM; TGI (BT-549 breast): 8.62 µM; GI50 (SF-539 CNS): 0.48 µM; TGI (SF-539 CNS): 1.91 µM; GI50 (SF-295 CNS): 2.58 µM; TGI (SF-295 CNS): 7.05 µM; GI50 (HT29 colon): 0.771 µM; TGI (HT29 colon): 9.17 µM; GI50 (SK-OV-3 ovarian): 4.87 µM; TGI (SK-OV-3 ovarian): 50.4 µM; GI50 (SR leukemia): 0.359 µM; TGI (SR leukemia): 5.82 µM; GI50 (COLO 205 colon): 1.87 µM; TGI (COLO 205 colon): 3.74 µM; GI50 (UACC-62 melanoma): 1.18 µM; TGI (UACC-62 melanoma): 2.96 µM; GI50 (CCRF-CEM leukemia): 0.325 µM; TGI (CCRF-CEM leukemia): 14.9 µM; GI50 (786-0 renal): 3.25 µM; TGI (786-0 renal): > 100 µM; GI50 (DU-145 prostate): 4.67 µM; TGI (DU-145 prostate): > 100 µM; GI50 (U251 CNS): 1.24 µM; TGI (U251 CNS): > 100 µM; GI50 (RXF 393 renal): 1.05 µM; TGI (RXF 393 renal): 2.8 µM; GI50 (MOLT-4 leukemia): 1.61 µM; TGI (MOLT-4 leukemia): 16.7 µM; GI50 (A498 renal): 10.5 µM; TGI (A498 renal): 25 µM; GI50 (NCI-H460 lung): 3.35 µM; TGI (NCI-H460 lung): 19 µM; GI50 (UO-31 renal): 0.49 µM; TGI (UO-31 renal): 1.82 µM; GI50 (MCF7 breast): 1.39 µM; TGI (MCF7 breast): 10.3 µM; GI50 (EKVX NSCLC): 2.68 µM; TGI (EKVX NSCLC): 11.4 µM; GI50 (HL-60(TB) leukemia): 0.405 µM; TGI (HL-60(TB) leukemia): 4.02 µM; GI50 (HCT-15 colon): 0.405 µM; TGI (HCT-15 colon): 1.85 µM
